# Assay results taken from paper PMC11145868, “Protein target similarity is positive predictor of in vitro antipathogenic activity: a drug repurposing strategy for Plasmodium falciparum” (Journal of Cheminformatics, 2024).
# Structures can show the parent of a compound that is named as a salt. Where two headings read alike, the source gives them in different places.
# Legend:
# [1] = Mammalian cell cytotoxicity assay, HEK293T (CellTiter-Glo, 72 h); conditions: human, HEK293T cells
# P. falciparum Dd2-HLH [2] = experiment: microbe, parasite or virus in culture; format: cell-based, Plasmodium falciparum
# P. falciparum Dd2-HLH [3] = experiment: microbe, parasite or virus in culture; format: cell-based, Plasmodium falciparum; conditions: read-out: Blood stage 72h EC50
# [4] = tested on: P. berghei-luciferase sporozoites; experiment: microbe, parasite or virus in culture; format: cell-based, Plasmodium berghei; conditions: liver-stage parasites, 48 hours in culture, read-out: Liver stage 48h EC50
# [5] = Plasmodium falciparum, DD2, 48 h, read-out: Blood stage 48h EC50
# [6] = Plasmodium falciparum, DD2, 72 h
SMILES,CC50 at 72 h [1] [nM],EC50 (P. falciparum Dd2-HLH [2]; [5]) [nM],EC50 (P. falciparum Dd2-HLH [3]; [6]) [nM],"EC50 ([4]; Plasmodium berghei, HepG2) [nM]","EC50 (P. falciparum Dd2-HLH [2]; Plasmodium falciparum, DD2, read-out: EC50 (antiplasmodial, quoted in discussion from Supplementary Table 1)) [nM]","EC50 (P. falciparum Dd2-HLH [2]; Plasmodium falciparum, DD2, Hec50, 48 h, read-out: Blood stage 48 h EC50) [nM]","EC50 (P. falciparum Dd2-HLH [2]; P. falciparum blood-stage parasites, 48 hours in culture, read-out: Blood stage 48h EC50) [nM]","EC50 (P. falciparum Dd2-HLH [3]; P. falciparum blood-stage parasites, 72 hours in culture) [nM]",EC50 [4] [nM]
CC(C)C[C@H](NC(=O)[C@H](Cc1ccccc1)NC(=O)c1cnccn1)B(O)O [Bortezomib],25,91,82,12,–,–,–,–,–
"COc1ncc(-c2ccc3nccc(-c4ccnnc4)c3c2)cc1NS(=O)(=O)c1ccc(F)cc1F [omipalisib, reference compound]",46,–,158,230,159,–,–,–,–
CNC(=O)[C@H](Cc1ccccc1)NC(=O)[C@H](CC(C)C)[C@H](CSc1cccs1)C(=O)NO [Batimastat],> 9950,95,165,> 10000,–,–,–,–,–
C[C@@H](Oc1ccc2[nH]nc(/C=C/c3cnn(CCO)c3)c2c1)c1c(Cl)cncc1Cl [LY-2874455],875,512,733,2360,–,–,–,–,–
"COC(=O)[C@@]12OC[C@]34[C@H]([C@@H](O)[C@@H]1O)[C@@]1(C)CC(=O)C(O)=C(C)[C@@H]1C[C@H]3OC(=O)[C@H](OC(=O)/C=C(\C)C(C)C)[C@@H]24 [Bruceantin, reference compound]",25,–,7,–,–,5,–,–,–
CCC1=C[C@@H]2CN(C1)Cc1c([nH]c3ccccc13)[C@@](C(=O)OC)(c1cc3c(cc1OC)N(C)[C@H]1[C@@](O)(C(=O)OC)[C@H](OC(C)=O)[C@]4(CC)C=CCN5CC[C@]31[C@@H]54)C2 [Vinorelbine],2980,171,809,–,–,–,–,–,–
COc1ccc(C[C@H]2NC[C@H](O)[C@H]2OC(C)=O)cc1 [Anisomycin],–,–,–,–,–,–,44,61,266
O=C(NC1CCN(CCCCC2(C(=O)NCC(F)(F)F)c3ccccc3-c3ccccc32)CC1)c1ccccc1-c1ccc(C(F)(F)F)cc1 [Lomitapide],791,277,820,2250,–,–,–,–,–
COCCN1CCN(Cc2ccc(-c3n[nH]c4c3C(=O)c3c(NC(=O)NN5CCOCC5)cccc3-4)cc2)CC1 [RGB-286638],58,138,300,87,–,–,–,–,–
COc1cccc2c1C(=O)c1c(O)c3c(c(O)c1C2=O)C[C@@](O)(C(=O)CO)C[C@@H]3O[C@H]1C[C@H](N)[C@@H](O)[C@H](C)O1 [Epirubicin HCl],103,271,366,1480,–,–,–,–,–
CN1CCN(C2CCN(C(=O)Nc3cc(Oc4ccc(NC(=O)C5(C(=O)Nc6ccc(F)cc6)CC5)c(F)c4)ccn3)CC2)CC1 [Golvatinib],4360,738,1020,2840,–,–,–,–,–
OC(CCN1CCCC1)(c1ccccc1)C1CCCCC1 (stereo not shown) [Procyclidine hydrochloride],> 9950,594,437,> 10000,–,–,–,–,–
Cc1ccc(C(=O)Nc2ccc(CN3CCN(C)CC3)c(C(F)(F)F)c2)cc1C#Cc1cnc2cccnn12 [Pon/atinib],–,294,555,241,–,–,–,–,–
CC(C)(C)NC[C@H](O)COc1ccccc1C1CCCC1 [Penbutolol],> 9950,418,980,20000,–,–,–,–,–
C/C1=C/C[C@@H](/C(C)=C/c2csc(C)n2)OC(=O)C[C@H](O)C(C)(C)C(=O)[C@H](C)[C@@H](O)[C@@H](C)CCC1 [Desoxyepothilone B],–,44,76,986,–,–,–,–,–
CN(C)c1ccc2nc3ccc(=[N+](C)C)cc-3sc2c1 [Methylthioninium Chloride],1770,67,118,1050,–,–,–,–,–
COc1cc2ncnc(Nc3ccc(F)c(Cl)c3)c2cc1NC(=O)/C=C/CN1CCCCC1 [Dacomitinib],2620,540,953,596,–,–,–,–,–
CO[C@@H]1[C@H](N(C)C(=O)c2ccccc2)C[C@H]2O[C@]1(C)n1c3ccccc3c3c4c(c5c6ccccc6n2c5c31)C(=O)NC4 [Midostaurin],> 9950,86,–,3600,–,–,–,–,–
O=C(Nc1c[nH]nc1-c1nc2ccc(CN3CCOCC3)cc2[nH]1)NC1CC1 [AT-9283],–,129,864,569,–,–,–,–,–
COc1ccc(CCN2CCC(Nc3nc4ccccc4n3Cc3ccc(F)cc3)CC2)cc1 [Astemizole],> 9950,–,–,–,–,–,–,–,–
